Key:
[1] = molecular target: LdecOBP33; assay: Saturation fluorescence binding assay of 1-NPN with recombinant LdecOBP33; set-up: species or system Leptinotarsa decemlineata; settings: 2 µM LdecOBP33, 1-NPN 0-25 µM, 20 mM Tris pH 7.4, 25 °C; one-site saturation binding accounting for ligand depletion; read-out: dissociation constant (Kd)
Description: (§1) N-phenyl-1-naphthylamine (1-NPN) was used as a fluorescent reporter to assess the ligand-binding affinity of LdecOBP33 toward various plant volatiles and pesticides; this was chosen due to its reported success in prior studies. […] Each assay was performed at 25 ± 1 °C in a 96-well flat-bottom black plate with a final volume of 200 µL and 3 replicates. The relative fluorescence intensity was measured with a 337 nm/10 nm excitation filter and a 413 nm/10 nm emission filter, using a multi-mode Tecan Spark® plate reader. […] The equation Ki=IC50/(1+NPN/KdNPN) was used to calculate the Ki values of the competitor ligands.

[2] = molecular target: LdecOBP33; assay: Competitive fluorescence displacement binding assay (1-NPN reporter); set-up: species or system Leptinotarsa decemlineata; settings: for IC50 / displacement of the 1-NPN probe: 2 µM LdecOBP33, 2 µM 1-NPN; for IC50: competitor 0-450 µM, 20 mM Tris pH 7.4, 25 °C, mean ± SE (n = 3); for displacement of the 1-NPN probe: competitor up to 450 µM; for Ki: calculated from IC50 with Cheng and Prusoff equation, Ki=IC50/(1+NPN/KdNPN)
Description: as §1

[3] = ref PubChem database (accessed on 31 October 2025); cited from earlier work
[4] = test system: CPB; assay: Baseline mortality exposure to imidacloprid in adults, resistant vs susceptible strains; type: in vivo, Leptinotarsa decemlineata
Excerpt: Two different populations of CPBs were used for this study. The susceptible CPB population was purchased from French Agricultural Research (Lamberton, MN, USA). This population was initially collected in 2003 from Long Island, NY; following this, it was reared in laboratory conditions with no pesticide exposure. Neonicotinoid-resistant CPBs were collected from the University of Maine Aroostook Research Farm (Presque Isle, ME, USA). Baseline mortality exposure to imidacloprid in adults indicated a ~30-fold resistance ratio between the resistant and susceptible strains. Both CPB populations were reared in a Penn State facility greenhouse at 25 ± 1 °C under a 16:8 L/D photoperiod. Beetles were fed a constant supply of Red Norland potato plants and housed in insect and butterfly habitat cages (Restcloud, Guangzhou, China). Eggs were collected from plants and stored in Petri dishes maintained at 25 ± 1 °C and 60 ± 5% humidity under a 16:8 L/D photoperiod, located within a rearing room. Newly emerged first-instar larvae fed upon fresh potato plant leaflets up to the third instar and were then transferred back to the greenhouse.

[5] = test system: CPB; assay: Whole-antenna contact bioassay with imidacloprid; type: in vivo, Leptinotarsa decemlineata; settings: for mortality: after 36 h; for mortality / average mortality: 0.5 µL of 0.45 µg/µL per antenna
Description: After feeding with RNAi, the control or LdecOBP33 knockdown male CPBs were placed individually into fresh Petri dishes and anesthetized on ice for 10 min. Afterwards, 0.5 µL of an imidacloprid solution (Sigma Aldrich, St. Louis, MO, USA)—at various concentrations—in acetone was topically applied to each antenna of each CPB using a Hamilton 25 µL model #702 syringe (Hamilton, Reno, NV, USA). Care was taken to ensure that the pesticide solution was applied exclusively to the antennae. […] After treatment, all CPBs were placed in a fresh Petri dish with fresh potato leaves; the dish was kept in a rearing room maintained at 25 ± 1 °C, 60 ± 5% humidity, and a 16:8 L/D photoperiod. CPB mortality was assessed at 0, 3, 6, and 12 h, and every 12 h thereafter, for a total of five days post-treatment. The determination of recovery for individual CPBs after pesticide treatment was adapted from prior studies using three criteria. […] Second, beetles were placed prone and given two minutes to flip upright; those unable to do so were classified as dead. Finally, beetles were placed upside down on the handle of a paintbrush to assess their mobility; individuals that could not walk their full body length or fell off were considered dead. Six biological replicates were conducted, each consisting of 8–10 beetles.

c1ccc(Nc2cccc3ccccc23)cc1 [1-NPN, N-phenyl-1-naphthylamine]
Kd [1]: 4.53 ± 0.31 µM

CCC/C=C/C=O [(E)-2-Hexenal]
IC50 [2]: 401 ± 16.3 µM
displacement of the 1-NPN probe [2]: over 50%
Ki [2]: 301 µM
LogP [3]: 1.50

CC/C=C/CCO [(E)-3-Hexen-1-ol]
IC50 [2]: > 450 µM
displacement of the 1-NPN probe [2]: No noticeable displacement
Ki [2]: > 338 µM
LogP [3]: 1.30

CC/C=C\CCOC(=O)CCC [(Z)-3-Hexenyl-butyrate]
IC50 [2]: 24 ± 2.05 µM
displacement of the 1-NPN probe [2]: over 50%
Ki [2]: 18 µM

CNC(=O)Oc1cccc2ccccc12 [Carbaryl]
IC50 [2]: > 450 µM
displacement of the 1-NPN probe [2]: No noticeable displacement
Ki [2]: > 338 µM

COP(=S)(OC)Oc1nc(Cl)c(Cl)cc1Cl [Chlorpyrifos-methyl]
IC50 [2]: 63.7 ± 3.32 µM
displacement of the 1-NPN probe [2]: over 50%
Ki [2]: 47.8 µM
LogP [3]: 4.30

CCOP(=S)(OCC)Oc1nc(Cl)c(Cl)cc1Cl [Chlorpyrifos]
IC50 [2]: 45.8 ± 3.53 µM
displacement of the 1-NPN probe [2]: over 50%
Ki [2]: 34.4 µM
LogP [3]: 4.96

CN/C(=N\[N+](=O)[O-])NCc1cnc(Cl)s1 [Clothianidin]
IC50 [2]: 94.5 ± 4.24 µM
displacement of the 1-NPN probe [2]: over 50%
Ki [2]: 71 µM
LogP [3]: 0.70

OC[C@H]1OC(O)[C@H](O)[C@@H](O)[C@@H]1O (stereo partly drawn) [D-Glucose]
IC50 [2]: > 450 µM
displacement of the 1-NPN probe [2]: No noticeable displacement
Ki [2]: > 338 µM

O=[N+]([O-])NC1=NCCN1Cc1ccc(Cl)nc1 [Imidacloprid]
resistance ratio between the resistant and susceptible strains [4]: ~ 30 fold
IC50 [2]: 263 ± 15.2 µM
displacement of the 1-NPN probe [2]: over 50%
Ki [2]: 197 µM
increase of mortality, dsLdecOBP33-treated vs control ([5]; by 120 h): 19%
mortality ([5]; control (dsGFP) resistant males): 55%
average mortality ([5]; control (dsGFP) resistant males, by 120 h): 12%
mortality ([5]; dsLdecOBP33-KD resistant males): 81%
average mortality ([5]; dsLdecOBP33-treated resistant males, by 120 h): 32%
LD50 ([5]; preliminary tests, 0.5 µL application in acetone to each antenna): 0.45 µg/µL
LogP [3]: 0.57

C=C[C@](C)(O)CCC=C(C)C [L-Linalool]
IC50 [2]: 48.3 ± 1.77 µM
displacement of the 1-NPN probe [2]: over 50%
Ki [2]: 36.2 µM

COC(=O)c1ccccc1O [Methyl salicylate]
IC50 [2]: 396 ± 20 µM
displacement of the 1-NPN probe [2]: over 50%
Ki [2]: 298 µM
LogP [3]: 2.50

CCCCCCCCC=O [Nonanal]
IC50 [2]: 7.29 ± 0.53 µM
displacement of the 1-NPN probe [2]: over 50%
LogP [3]: 3.30

CC(C)=CC1C(C(=O)OCN2C(=O)C3=C(CCCC3)C2=O)C1(C)C (stereo not shown) [Tetramethrin]
IC50 [2]: 29.1 ± 1.78 µM
displacement of the 1-NPN probe [2]: over 50%
Ki [2]: 21.8 µM
LogP [3]: 4.70

From publication PMC12733967, “Pleiotropic Function of Antenna-Specific Odorant-Binding Protein Links Xenobiotic Adaptation and Olfaction in Leptinotarsa decemlineata” (Insects, 2025)
